These results are taken from ChEMBL document CHEMBL1153835, “Targeting the calcineurin pathway enhances ergosterol biosynthesis inhibitors against Trichophyton mentagrophytes in vitro and in a human skin infection model” (Antimicrob Agents Chemother, 2007).

In general, MIC refers to the lowest concentration found to suppress growth. A lower MIC goes with inhibition by little substance. By MIC80 is commonly meant the lowest concentration that inhibits either 80% of growth or 80% of the strains tested, depending on the study. Read a high MIC80 as lower susceptibility.

For series [1], the system named is Trichophyton mentagrophytes. Description: Antifungal activity against Trichophyton mentagrophytes DUMC160.03 by CLSI protocol. The format is functional.
The test system of series [2] is Trichophyton mentagrophytes. Description: Antifungal activity against Trichophyton mentagrophytes DUMC112.02 by CLSI protocol. The format is functional.
The test system of series [3] is Trichophyton mentagrophytes. Description: Antifungal activity against Trichophyton mentagrophytes DUMC160.03 infected in human skin at 2 fold MIC administered 30 mins post infection followed by once in every 2 days for 7 days by scanning electron microscopy relative to control. The format is functional, organism-based.
Series [4] deals with Zone of skin. Description: Toxicity to human skin assessed as damage of skin integrity at 2 fold MIC administered 30 mins post inoculation followed by once in every 2 days for 7 days by scanning electron microscopy. It is filed as tissue-based.

The structures appear in SMILES notation. Converted amounts (≈) assume the structure as drawn. The source made the active and inactive calls. The calls are words filed in the database; no cut-off is given here.

For `C/C=C/C[C@@H](C)[C@@H](O)[C@H]1C(=O)N[C@@H](CC)C(=O)N(C)CC(=O)N(C)[C@@H](CC(C)C)C(=O)N[C@@H](C(C)C)C(=O)N(C)[C@@H](CC(C)C)C(=O)N[C@@H](C)C(=O)N[C@H](C)C(=O)N(C)[C@@H](CC(C)C)C(=O)N(C)[C@@H](CC(C)C)C(=O)N(C)[C@@H](C(C)C)C(=O)N1C` [CYCLOSPORINE], the MIC in series [1] worked out at 1 mg/L (≈ 0.832 µM); in series [2], 2 mg/L (≈ 1.66 µM). Also, the MIC80 in series [1] was determined as 8 mg/L (≈ 6.65 µM); in series [2], 2 mg/L (≈ 1.66 µM).

In series [1], `OC(Cn1cncn1)(Cn1cncn1)c1ccc(F)cc1F` [FLUCONAZOLE] yielded an MIC of 8 mg/L (≈ 26.1 µM) and an MIC80 of 16 mg/L (≈ 52.2 µM). Also, the outcome in series [3] was Active. The Activity result in series [4] is listed as “Non-toxic”. In series [2], the lowest concentration to inhibit growth (MIC) was 8 mg/L (≈ 26.1 µM) and the MIC80 is 16 mg/L (≈ 52.2 µM).

In series [1], `C=CC[C@@H]1/C=C(\C)C[C@H](C)C[C@H](OC)[C@H]2O[C@@](O)(C(=O)C(=O)N3CCCC[C@H]3C(=O)O[C@H](/C(C)=C/[C@@H]3CC[C@@H](O)[C@H](OC)C3)[C@H](C)[C@@H](O)CC1=O)[C@H](C)C[C@@H]2OC` [TACROLIMUS ANHYDROUS] returned a minimal inhibitory concentration (MIC) of 1 mg/L (≈ 1.24 µM) and an MIC80 of 1 mg/L (≈ 1.24 µM). In series [3], the result was inactive. The Activity entry in series [4] is recorded as “Non-toxic”. In series [2], this compound had an MIC of 1 mg/L (≈ 1.24 µM) and an MIC80 of 1 mg/L (≈ 1.24 µM).

Consider `CN(C/C=C/C#CC(C)(C)C)Cc1cccc2ccccc12` [TERBINAFINE], for which the MIC in series [1] was 0.0312 mg/L (≈ 0.107 µM); in series [2], 0.004 mg/L (≈ 0.0137 µM). Moreover, the outcome in series [3] was Active. For the same compound, in series [4], the Activity entry is reported as “Non-toxic”.
